Assay results published in BigSolDB 2.1.

Compound `O=[N+]([O-])c1cccc2c([N+](=O)[O-])cccc12` has a solubility (mole fraction) (in ethyl acetate, 273.15 K) of 0.000648, a solubility (mole fraction) (in ethyl acetate, 275.65 K) of 0.000699 and a solubility (mole fraction) (in ethyl acetate, 278.15 K) of 0.000754. For the same compound, the solubility (mole fraction) (in ethyl acetate, 280.65 K) was 0.000835, the solubility (mole fraction) (in ethyl acetate, 283.15 K) was 0.000923 and the solubility (mole fraction) (in ethyl acetate, 285.65 K) was 0.000998. The solubility (mole fraction) (in ethyl acetate, 288.15 K) was 0.00113, the solubility (mole fraction) (in ethyl acetate, 290.65 K) was 0.00123 and the solubility (mole fraction) (in ethyl acetate, 293.15 K) was 0.00136. It also gave a solubility (mole fraction) (in ethyl acetate, 295.65 K) of 0.00148, a solubility (mole fraction) (in ethyl acetate, 298.15 K) of 0.00164 and a solubility (mole fraction) (in ethyl acetate, 300.65 K) of 0.0018. It also gave a solubility (mole fraction) (in ethyl acetate, 303.15 K) of 0.00198, a solubility (mole fraction) (in ethyl acetate, 305.65 K) of 0.00218 and a solubility (mole fraction) (in ethyl acetate, 308.15 K) of 0.00238. The solubility (mole fraction) (in ethyl acetate, 310.65 K) was 0.00258, the solubility (mole fraction) (in ethyl acetate, 313.15 K) was 0.00284 and the solubility (mole fraction) (in ethylbenzene, 273.15 K) was 0.000522. The solubility (mole fraction) (in ethylbenzene, 275.65 K) was 0.000578, the solubility (mole fraction) (in ethylbenzene, 278.15 K) was 0.000638 and the solubility (mole fraction) (in ethylbenzene, 280.65 K) was 0.000714. The solubility (mole fraction) (in ethylbenzene, 283.15 K) was 0.000785, the solubility (mole fraction) (in ethylbenzene, 285.65 K) was 0.000863 and the solubility (mole fraction) (in ethylbenzene, 288.15 K) was 0.000941. It also gave a solubility (mole fraction) (in ethylbenzene, 290.65 K) of 0.00104, a solubility (mole fraction) (in ethylbenzene, 293.15 K) of 0.00116 and a solubility (mole fraction) (in ethylbenzene, 295.65 K) of 0.00129. The solubility (mole fraction) (in ethylbenzene, 298.15 K) was 0.0014, the solubility (mole fraction) (in ethylbenzene, 300.65 K) was 0.00152 and the solubility (mole fraction) (in ethylbenzene, 303.15 K) was 0.00166. The solubility (mole fraction) (in ethylbenzene, 305.65 K) was 0.00182, the solubility (mole fraction) (in ethylbenzene, 308.15 K) was 0.00201 and the solubility (mole fraction) (in ethylbenzene, 310.65 K) was 0.00219. For the same compound, the solubility (mole fraction) (in ethylbenzene, 313.15 K) was 0.00248, the solubility (mole fraction) (in n-propanol, 273.15 K) was 2.17e-05 and the solubility (mole fraction) (in n-propanol, 275.65 K) was 2.53e-05. For the same compound, the solubility (mole fraction) (in n-propanol, 278.15 K) was 2.96e-05, the solubility (mole fraction) (in n-propanol, 280.65 K) was 3.41e-05 and the solubility (mole fraction) (in n-propanol, 283.15 K) was 3.92e-05. For the same compound, the solubility (mole fraction) (in n-propanol, 285.65 K) was 4.45e-05, the solubility (mole fraction) (in n-propanol, 288.15 K) was 5.16e-05 and the solubility (mole fraction) (in n-propanol, 290.65 K) was 5.77e-05. For the same compound, the solubility (mole fraction) (in n-propanol, 293.15 K) was 6.54e-05, the solubility (mole fraction) (in n-propanol, 295.65 K) was 7.43e-05 and the solubility (mole fraction) (in n-propanol, 298.15 K) was 8.45e-05. It also gave a solubility (mole fraction) (in n-propanol, 300.65 K) of 9.67e-05, a solubility (mole fraction) (in n-propanol, 303.15 K) of 0.00011 and a solubility (mole fraction) (in n-propanol, 305.65 K) of 0.000126. For the same compound, the solubility (mole fraction) (in n-propanol, 308.15 K) was 0.000142, the solubility (mole fraction) (in n-propanol, 310.65 K) was 0.000163 and the solubility (mole fraction) (in n-propanol, 313.15 K) was 0.000182. It also gave a solubility (mole fraction) (in toluene, 273.15 K) of 0.000683, a solubility (mole fraction) (in toluene, 275.65 K) of 0.000761 and a solubility (mole fraction) (in toluene, 278.15 K) of 0.000858. It also gave a solubility (mole fraction) (in toluene, 280.65 K) of 0.000958, a solubility (mole fraction) (in toluene, 283.15 K) of 0.00106 and a solubility (mole fraction) (in toluene, 285.65 K) of 0.00117. It also gave a solubility (mole fraction) (in toluene, 288.15 K) of 0.00129, a solubility (mole fraction) (in toluene, 290.65 K) of 0.00141 and a solubility (mole fraction) (in toluene, 293.15 K) of 0.00153. It also gave a solubility (mole fraction) (in toluene, 295.65 K) of 0.0017, a solubility (mole fraction) (in toluene, 298.15 K) of 0.00186 and a solubility (mole fraction) (in toluene, 300.65 K) of 0.00205. The solubility (mole fraction) (in toluene, 303.15 K) was 0.00223, the solubility (mole fraction) (in toluene, 305.65 K) was 0.00242 and the solubility (mole fraction) (in toluene, 308.15 K) was 0.00264. It also gave a solubility (mole fraction) (in toluene, 310.65 K) of 0.00287 and a solubility (mole fraction) (in toluene, 313.15 K) of 0.00309.
